Assay results from ChEMBL document CHEMBL1146285, “Trimethylsilylpyrazoles as novel inhibitors of p38 MAP kinase: a new use of silicon bioisosteres in medicinal chemistry” (Bioorg Med Chem Lett, 2007).

What was measured:
[1] = Partition coefficient, log P of the compound; assay type: physicochemical; conditions: octanol/water
[2] = Distribution coefficient, log D at pH 6.0; assay type: physicochemical; conditions: octanol/water
[3] = Distribution coefficient, log D at pH 6.5; assay type: physicochemical; conditions: octanol/water
[4] = Distribution coefficient, log D at pH 7.4; assay type: physicochemical; conditions: octanol/water
[5] = Metabolic stability in human liver microsomes at 1 uM after 40 mins; assay type: ADME, Microsome; conditions: read-out: Stability
Mus musculus [6] = assay: Suppression of lipopolysaccharide-induced TNFalpha release in mouse at 10 mg/kg, po after 30 mins; assay type: functional
Mus musculus [7] = assay: Suppression of lipopolysaccharide-induced TNFalpha release in mouse at 10 mg/kg, po after 120 mins; assay type: functional

Q: Which results are given for `Cc1ccc(-n2nc(C(C)(C)C)cc2NC(=O)Nc2ccc(OCCN3CCOCC3)c3ccccc23)cc1` [DORAMAPIMOD]?
A: logP [1]: 5.2; logD [2]: 4.6; logD [3]: 4.9; logD [4]: 5.1; remaining at 40 min, 1 µM [5]: 79%; Activity (Mus musculus [6]): -41%; Activity (Mus musculus [7]): -40%
